Laboratory results from ChEMBL document CHEMBL5055627 (J Med Chem, 2021).

Columns and labels:
[1] = test system: human 20S immunoproteasome subunit beta-5i (versus Mycobacterium tuberculosis 20S open gate mutant); assay: Selectivity index, ratio of IC50 for human 20S immunoproteasome subunit beta-5i to IC50 for Mycobacterium tuberculosis 20S open gate mutant; assay type: toxicity; conditions: read-out: Ratio IC50
[2] = test system: human 20S constitutive proteasome subunit beta-5c (versus Mycobacterium tuberculosis 20S open gate mutant); assay: Selectivity index, ratio of IC50 for human 20S constitutive proteasome subunit beta-5c to IC50 for Mycobacterium tuberculosis 20S open gate mutant; assay type: toxicity; conditions: read-out: Ratio IC50
[3] = Inhibition of Mycobacterium tuberculosis 20S proteasome open gate mutant expressed in Escherichia coli BL21(DE3) using Suc-LLVY-AMC as substrate measured over 1.5 to 2 hrs by plate reader assay

Structure (SMILES)	selectivity ratio [1]	selectivity ratio [2]	IC50 [3] [nM]
O=C1CCc2cccc(c2)Oc2ccc(cc2)C[C@@H](C(=O)NCc2ccccc2F)NC(=O)[C@H](CC(=O)N2CCC[C@@H]2c2ccccc2)N1	> 13600	> 13600	7.4
O=C1CCCCCCCCOC[C@@H](C(=O)NCc2ccccc2F)NC(=O)[C@H](CC(=O)N2CCC[C@@H]2c2ccccc2)N1	> 14000	> 14000	7
O=C(N[C@H]1Cc2cccc(c2)Oc2ccc(cc2)C[C@@H](C(=O)NCc2ccccc2F)NC(=O)[C@H](CC(=O)N2CCC[C@@H]2c2ccccc2)NC1=O)c1ccccc1	> 119	> 119	840
O=C1CCc2cccc(c2)OCCCC[C@@H](C(=O)NCc2ccccc2F)NC(=O)[C@H](CC(=O)N2CCC[C@@H]2c2ccccc2)N1	> 14000	> 14000	7
O=C1CCc2cccc(c2)OCCCC[C@@H](C(=O)NCc2ccccc2F)NC(=O)[C@H](CC(=O)N2CCC[C@@H]2C2CC2)N1	11	11	7
O=C1CCc2cccc(c2)OCCCC[C@@H](C(=O)NCc2ccccc2F)NC(=O)[C@H](CC(=O)N2CCC[C@H]2C2CC2)N1	11	19	79
O=C1CCc2cccc(c2)OCCCC[C@@H](C(=O)NCc2ccccc2F)NC(=O)[C@H](CCN2CCC[C@@H]2c2ccccc2)N1	31	57	1500
CCN(CC)C(=O)C[C@H](NC(=O)CCc1ccccc1)C(=O)N[C@@H](Cc1ccc(F)cc1)C(=O)NCc1cccc2ccccc12	3650	4670	15
Cc1ccc(CNC(=O)[C@@H]2Cc3cccc(c3)Oc3cccc(c3)C[C@H](N)C(=O)N[C@@H](CCc3ccccc3)C(=O)N2)cc1			> 100000
CC(=O)N[C@H]1Cc2cccc(c2)Oc2ccc(cc2)C[C@@H](C(=O)NCc2ccccc2F)NC(=O)[C@H](CC(=O)N2CCC[C@@H]2c2ccccc2)NC1=O	> 594	> 594	170
O=C1CCCCCCCCCC[C@@H](C(=O)NCc2cccc3ccccc23)NC(=O)[C@H](CC(=O)N2CCCC2)N1			150
O=C1CCc2cccc(c2)Oc2ccc(cc2)C[C@@H](C(=O)NCc2ccccc2F)NC(=O)[C@H](CC(=O)N2CCCC2)N1	108		200
O=C1CCCCCCCCC[C@@H](C(=O)NCc2cccc3ccccc23)NC(=O)[C@H](CC(=O)N2CCCC2)N1			710
O=C1N[C@@H](CC(=O)N2CCCC2)C(=O)N[C@H](C(=O)NCc2cccc3ccccc23)CCCCCCCCCC1Cc1ccccc1 (some centres undefined)			5000
O=C1CCCCCCCCOC[C@@H](C(=O)NCc2cccc3ccccc23)NC(=O)[C@H](CC(=O)N2CCCC2)N1			100
